Assay results from patent publication US20200338084A1, “INHIBITORS OF LOW MOLECULAR WEIGHT PROTEIN TYROSINE PHOSPHATASE (LMPTP) AND USES THEREOF” (Sanford Burnham Prebys Medical Discovery Institute, priority 2018, published 2020).

target: T1, human LMPTP-A (Homo sapiens, UniProt P24666); assay: Enzyme Assay of Inhibition of LMPTP-A; assay type: biochemical; settings: phosphatase assay, OMFP or pNPP substrate, 50 mM Bis-Tris pH 6.0, 37° C.
T1 sequence (P24666 1-158): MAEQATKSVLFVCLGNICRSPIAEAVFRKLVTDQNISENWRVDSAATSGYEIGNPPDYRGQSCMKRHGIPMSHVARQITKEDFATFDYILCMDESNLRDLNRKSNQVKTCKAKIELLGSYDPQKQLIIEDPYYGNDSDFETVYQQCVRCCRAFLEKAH
Method: Phosphatase assays were performed in buffer containing 50 mM Bis-Tris, pH 6.0, 1 mM DTT and 0.01% Triton X-100 at 37° C. For assays conducted with 3-O-methylfluorescein phosphate (OMFP) as substrate, fluorescence was monitored continuously at λex=485 and λem=525 nm. For assays conducted with para-nitrophenylphosphate (pNPP) as substrate, the reaction was stopped by addition of 2× reaction volume of 1 M NaOH, and absorbance was measured at 405 nm. IC50 values of compounds disclosed herein were determined from plots of inhibitor concentration versus percentage of enzyme activity. For inhibitor selectivity assays, each PTP was incubated with either 0.4 mM OMFP or 5 mM pNPP in the presence of 40 μM compound or DMSO. […] For the inhibitor reversibility assay, 50 nM human LMPTP-A was pre-incubated with 10 μM of compound disclosed herein or DMSO for 5 min. The enzyme was diluted 100× in phosphatase assay buffer containing 0.4 mM OMFP and fluorescence was measured at the indicated time points.

Compound | IC50 [µM]
Nc1ncn(Cc2c(F)cccc2I)c2ncnc1-2 [3-(2-Fluoro-6-iodo-benzyl)-3H-purin-6-ylamine] | ≤ 1
Cc1ccc(Cn2cnc(N)c3ncnc2-3)cc1 [3-(4-Methyl-benzyl)-3H-purin-6-ylamine] | ≥ 20
Cn1ccnc1Cn1cnc(N)c2ncnc1-2 [3-((1-methyl-1H-imidazol-2-yl)methyl)-3H-purin-6-amine] | ≥ 20
Nc1ncn(Cc2c(Cl)cccc2Cl)c2nc(-c3ccncc3)nc1-2 [3-[(2,6-Dichlorophenyl)methyl]-8-(4-pyridyl)-3-hydropurine-6-ylamine] | ≤ 1
Clc1cccc(Cl)c1Cn1cnc(N2CCCCC2)c2ncnc1-2 [3-(2,6-Dichloro-benzyl)-6-piperidin-1-yl-3H-purine] | ≥ 20
Nc1ncn(Cc2c(Cl)cccc2Cl)c2nc(-c3cccc(F)c3F)nc1-2 [3-[(2,6-dichlorophenyl)methyl]-8-(2,3-difluorophenyl)-3-hydropurine-6-ylamine] | ≤ 1
Nc1ncn(Cc2cscn2)c2ncnc1-2 [3-Thiazol-4-ylmethyl-3H-purin-6-ylaniine] | ≥ 20
CC(=O)c1ccc(Nc2ncn(Cc3c(Cl)cccc3Cl)c3ncnc2-3)cc1 [1-Acetyl-4-({3-[(2,6-dichlorophenyl)methyl](3-hydropurin-6-yl)}amino)benzene] | 1 to 20
O=C(O)c1cccc(Nc2ncn(Cc3c(Cl)cccc3Cl)c3ncnc2-3)c1 [3-({3-[(2,6-Dichlorophenyl)methyl]-3-hydropurin-6-yl}amino)benzoic acid] | 1 to 20
Nc1ncn(Cc2cccnc2)c2ncnc1-2 [3-Pyridin-3-ylmethyl-3H-purin-6-ylamine] | 1 to 20
Cc1ccccc1Cn1cnc(N)c2ncnc1-2 [3-(2-Methyl-benzyl)-3H-purin-6-ylamine] | 1 to 20
Nc1ncn(Cc2c(Cl)cccc2Cl)c2nc(C3CCCCC3)nc1-2 [3-[(2,6-Dichlorophenyl)methyl]-8-cyclohexyl-3-hydropurine-6-ylamine] | ≤ 1
COc1ccccc1-c1nc2c(N)ncn(Cc3c(Cl)cccc3Cl)c-2n1 [3-[(2,6-Dichlorophenyl)methyl]-8-(2-methoxyphenyl)-3-hydropurine-6-ylamine] | ≤ 1
FC(F)Oc1ccc(Nc2ncn(Cc3c(Cl)cccc3Cl)c3ncnc2-3)cc1 [3-(2,6-Dichlorobenzyl)-N-(4-(difluoromethoxy)phenyl)-3H-purin-6-amine] | 1 to 20
Nc1ncn(Cc2ccccc2Cl)c2ncnc1-2 [3-(2-Chloro-benzyl)-3H-purin-6-ylamine] | 1 to 20
Nc1ncn(Cc2c(Cl)cccc2Cl)c2nc(CCc3ccccc3)nc1-2 [3-[(2,6-Dichlorophenyl)methyl]-8-(2-phenylethyl)-3-hydropurine-6-ylamine] | ≤ 1
Nc1ncn(Cc2c(Cl)cccc2Cl)c2nc(-c3c(F)cccc3F)nc1-2 [3-[(2,6-dichlorophenyl)methyl]-8-(2,6-difluorophenyl)-3-hydropurine-6-ylamine] | ≤ 1
Nc1ncn(Cc2c(F)cccc2Cl)c2ncnc1-2 [3-(2-Chloro-6-fluoro-benzyl)-3H-purin-6-ylamine] | ≤ 1
Nc1ncn(Cc2c(Cl)cccc2Cl)c2nc(-c3cc[nH]n3)nc1-2 [3-[(2,6-Dichlorophenyl)methyl]-8-pyrazol-5-yl-3-hydropurine-6-ylamine] | ≥ 20
Nc1ncn(Cc2c(Cl)cccc2Cl)c2nc(C3=CCOCC3)nc1-2 [3-(2,6-dichlorobenzyl)-8-(3,6-dihydro-2H-pyran-4-yl)-3H-purin-6-amine] | ≤ 1
COc1ccc(CNc2ncn(Cc3c(Cl)cccc3Cl)c3ncnc2-3)c(OC)c1 [3-(2,6-dichlorobenzyl)-N-(2,4-dimethoxybenzyl)-3H-purin-6-amine] | 1 to 20
Nc1ncn(Cc2c(F)cccc2F)c2ncnc1-2 | 1 to 20
Clc1cccc(Cn2cnc(NCc3ccco3)c3ncnc2-3)c1Cl [3-(2,3-dichlorobenzyl)-N-(furan-2-ylmethyl)-3H-purin-6-amine] | 1 to 20
Nc1cccc(Cl)c1Cn1cnc(N)c2ncnc1-2 [3-(2-Amino-6-chlorobenzyl)-3H-purin-6-amine] | 1 to 20
Nc1ncn(Cc2c(Cl)cccc2Cl)c2nc(Cc3ccc(Br)cc3)nc1-2 [3-[(2,6-Dichlorophenyl)methyl]-8-[(4-bromophenyl)methyl]-3-hydropurine-6-ylamine] | ≤ 1

Second part, the compound after the results:

IC50 [µM] | Compound
1 to 20 | COCCCNc1ncn(Cc2c(Cl)cccc2Cl)c2ncnc1-2 [[3-(2,6-Dichloro-benzyl)-3H-purin-6-yl]-(3-methoxy-propyl)-amine]
≤ 1 | N#Cc1ccc(-c2nc3c(N)ncn(Cc4c(Cl)cccc4Cl)c-3n2)cc1 [4-{6-Amino-3-[(2,6-dichlorophenyl)methyl]-3-hydropurin-8-yl}benzenecarbonitrile]
≥ 20 | O=C(Nc1ncn(Cc2c(Cl)cccc2Cl)c2ncnc1-2)c1ccccc1 [N-[3-(2,6-Dichloro-benzyl)-3H-purin-6-yl]-benzamide]
≥ 20 | Clc1cccc(Cl)c1Cn1cnc(Nc2ccccc2N2CCOCC2)c2ncnc1-2 [{3-[(2,6-Dichlorophenyl)methyl](3-hydropurin-6-yl)}(2-morpholin-4-ylphenyl)amine]
1 to 20 | NCCCCNc1ncn(Cc2c(Cl)cccc2Cl)c2ncnc1-2 [(4-Aminobutyl){3-[(2,6-dichlorophenyl)methyl](3-hydropurin-6-yl)}amine]
1 to 20 | Cc1cccc(Nc2ncn(Cc3c(Cl)cccc3Cl)c3ncnc2-3)c1 [{3-[(2,6-Dichlorophenyl)methyl](3-hydropurin-6-yl)}(3-methylphenyl)amine]
1 to 20 | Fc1cccc(CNc2ncn(Cc3c(Cl)cccc3Cl)c3ncnc2-3)c1 [[3-(2,6-Dichloro-benzyl)-3H-purin-6-yl]-(3-fluoro-benzyl)-amine]
1 to 20 | Cc1ccc(Nc2ncn(Cc3c(Cl)cccc3Cl)c3ncnc2-3)cc1 [{3-[(2,6-Dichlorophenyl)methyl](3-hydropurin-6-yl)}(4-methylphenyl)amine]
1 to 20 | CCNc1ncn(Cc2c(Cl)cccc2Cl)c2ncnc1-2 [[3-(2,6-Dichloro-benzyl)-3H-purin-6-yl]-ethyl-amine]
≥ 20 | Fc1ccc(F)c(Cn2cnc(NCc3ccco3)c3ncnc2-3)c1F [Furan-2-ylmethyl-[3-(2,3,6-trifluoro-benzyl)-3H-purin-6-yl]-amine]
≤ 1 | Nc1ncn(Cc2c(Cl)cccc2Cl)c2nc(Cc3ccc(F)cc3)nc1-2 [3-[(2,6-dichlorophenyl)methyl]-8-[(4-fluorophenyl)methyl]-3-hydropurine-6-ylamine]
≤ 1 | Nc1ncn(Cc2c(Cl)cccc2Cl)c2nc(-c3ccc(F)c(F)c3)nc1-2 [3-[(2,6-dichlorophenyl)methyl]-8-(3,4-difluorophenyl)-3-hydropurine-6-ylamine]
≥ 20 | Clc1cccc(Cl)c1Cn1cnc(NCCN2CCCCC2)c2ncnc1-2 [{3-[(2,6-Dichlorophenyl)methyl](3-hydropurin-6-yl)}(2-piperidylethyl)amine]
1 to 20 | N#Cc1ccc(Nc2ncn(Cc3c(Cl)cccc3Cl)c3ncnc2-3)cc1 [4-({3-[(2,6-Dichlorophenyl)methyl]-3-hydropurin-6-yl}amino)benzenecarbonitrile]
1 to 20 | Cc1cccc(C)c1Nc1ncn(Cc2c(Cl)cccc2Cl)c2ncnc1-2 [{3-[(2,6-Dichlorophenyl)methyl](3-hydropurin-6-yl)}(2,6-dimethylphenyl)amine]
1 to 20 | Clc1cccc(Cl)c1Cn1cnc(NCc2cnco2)c2ncnc1-2 [[3-(2,6-Dichloro-benzyl)-3H-purin-6-yl]-oxazol-5-ylmethyl-amine]
≥ 20 | Cc1ccccc1Cn1cnc(NCc2ccco2)c2ncnc1-2 [Furan-2-ylmethyl-[3-(2-methyl-benzyl)-3H-purin-6-yl]-amine]
≤ 1 | N#Cc1ccc(-c2nc3c(N)ncn(Cc4c(Cl)cccc4Cl)c-3n2)s1 [5-(6-amino-3-(2,6-dichlorobenzyl)-3H-purin-8-yl)thiophene-2-carbonitrile]
1 to 20 | CCCCCNc1ncn(Cc2c(Cl)cccc2Cl)c2ncnc1-2 [[3-(2,6-Dichloro-benzyl)-3H-purin-6-yl]-pentyl-amine]
1 to 20 | Clc1cccc(Cl)c1Cn1cnc(NCc2cccnc2)c2ncnc1-2 [[3-(2,6-Dichloro-benzyl)-3H-purin-6-yl]-pyridin-3-ylmethyl-amine]
1 to 20 | Nc1ncn(Cc2c(Cl)cccc2Cl)c2nc(C(F)F)nc1-2 [3-[(2,6-dichlorophenyl)methyl]-8-(difluoromethyl)-3-hydropurine-6-ylamine]
1 to 20 | Clc1cccc(Cl)c1Cn1cnc(Nc2ccc(N3CCOCC3)cc2)c2ncnc1-2 [{3-[(2,6-Dichlorophenyl)methyl](3-hydropurin-6-yl)}(4-morpholin-4-ylphenyl)amine]
1 to 20 | CCCNc1ncn(Cc2c(Cl)cccc2Cl)c2ncnc1-2 [[3-(2,6-Dichloro-benzyl)-3H-purin-6-yl]-propyl-amine]
1 to 20 | COC(=O)c1cccc(Nc2ncn(Cc3c(Cl)cccc3Cl)c3ncnc2-3)c1 [Methyl 3-({3-[(2,6-dichlorophenyl)methyl]-3-hydropurin-6-yl}amino)benzoate]
1 to 20 | CN(C)c1ccc(Nc2ncn(Cc3c(Cl)cccc3Cl)c3ncnc2-3)cc1 [N1-(3-(2,6-dichlorobenzyl)-3H-purin-6-yl)-N4,N4-dimethylbenzene-1,4-diamine]
